From patent publication US10543215B2, “Combination therapy of cardiac myosin activator and sinus node if current inhibitor” (AMGEN INC., priority 2015, dated 2020)
“And” between values parts separate entries of the source, which are not always exact repeats. Identical values can stand only once.

Test system: conscious telemetered beagle dogs
Test: Left-ventricular hemodynamic, mechanical and timing indices by radio-telemetry before and during IV OM or vehicle, on repeated oral IVA or placebo
Format: in vivo, beagle dog
Procedure: Healthy male beagle dogs (n=7) instrumented with radio-telemetry units providing continuous single-lead electrocardiogram (ECG), as well as systemic (arterial, AoP) and left-ventricular (LVP) pressure signals were used for this study. Following sling acclimation, the animals were assigned to receive repeated oral (via gavage) treatments with either Ivabradine (IVA, 5 mg/kg bid) or a volume-matched placebo-control (sterile water, CTRL) for 5 days, administered at a dose volume of 10 mL/kg, in a cross over design.
The animals were sling-restrained and were subjected to acute intravenous administration of either sterile water (VEH, on Days 4 and 11 of dosing) or Omecamtiv Mecarbil (OM, on Days 5 and 12 of dosing). OM treatments were performed over a 3-hour infusion duration, following a dose-escalation design targeting plasma concentrations of 600 and 1000 ng/mL (each over 90 minutes, with a 30 minute loading infusion followed by a 60 minute maintenance infusion) for a cumulative dose of 5.293 mg/kg (as shown in Table A below). The IV vehicle treatments were time- and volume-matched.
Telemetered data were collected continuously for at least 90 minutes prior to and during dosing, as well as for at least 20 hours post-dose. The LVP and ECG signals were digitized at a sampling rate of at least 1000 Hz. The data were analyzed for heart rate (HR) and left-ventricular hemodynamic/mechanical indices that were obtained from the pressure waveform, including mean systolic (MSP) and end-diastolic (filling, EDP) pressures, the peak rates of pressure change during systole/diastole (dP/dtmax/min), as well as the time-constant of relaxation (tau) and a contractility index (CI: dP/dtmax normalized by the pressure at dP/dtmax). The data were also analyzed for systolic and diastolic intervals, including the estimated durations of the systolic ejection (SET), contraction (CT), active relaxation (RT) and filling intervals (FT), as well as the systolic-to-diastolic interval ratio (S/D: SET/RT+FT), which were derived from the left-ventricular pressure waveform.
The left-ventricular indices were evaluated only in the sling-restrained animals before and during IV treatment with OM or vehicle. Cardiovascular responses at each dose level were monitored for up to 90 minutes, i.e., over 3 hours total (during IV dosing of VEH and OM on Days 4, 5, 11, and 12 in the dose administration paradigm). Overall, in-sling cardiovascular data are reported at the following pre-determined/targeted time points: prior to dosing (i.e., at baseline, PRE) and approximately at the end of each infusion period (i.e., up to 4 time points during dosing, D1 to D4). Signals were analyzed continuously in 5-minute epochs, with pre-administration (i.e., PRE) values representing the overall mean over at least 5-epochs (i.e., 25 minutes) taken immediately prior to the onset of dosing, while during-dosing values reflect 5-minute averages (i.e., 1 epoch) taken prior to the (estimated) termination of each infusion. Data are presented as both means with standard deviations in summarizing tables/figure; beat-to-beat plots against heart rate are part of the study file.

[1] = D1, end of 30-min loading infusion, target OM 600 ng/mL
[2] = D2, end of 60-min maintenance infusion, target OM 600 ng/mL
[3] = D3, end of 30-min loading infusion, target OM 1000 ng/mL
[4] = D4, end of 60-min maintenance infusion, target OM 1000 ng/mL
[5] = PRE, before IV dosing (baseline)

Compound: COC(=O)N1CCN(Cc2cccc(NC(=O)Nc3ccc(C)nc3)c2F)CC1 [OM, methyl 4-(2-fluoro-3-(3-(6-methylpyridin-3-yl)ureido)benzyl)piperazine-1-carboxylate]
- CT % vs. PRE [1]: −3%
- CT (contraction time) [1]: 65.9 ms
- EDP % vs. PRE [1]: −24%
- EDP (left-ventricular end-diastolic pressure) [1]: 9.8 mmHg
- FT % vs. PRE [1]: 23%
- FT (filling time) [1]: 425 ms
- HR % vs. PRE [1]: −14%
- HR (heart rate) [1]: 86 bpm
- MSP % vs. PRE [1]: −2%
- MSP (left-ventricular mean systolic pressure) [1]: 127 mmHg
- RT % vs. PRE [1]: 13%
- RT (relaxation time) [1]: 104 ms
- S/D % vs. PRE [1]: 18%
- S/D (systolic to diastolic ratio, SET/RT + FT) [1]: 0.41
- SET % vs. PRE [1]: 33%
- SET (systolic ejection time) [1]: 207 ms
- Tau % vs. PRE [1]: 19 ± 3%
- Tau (left-ventricular relaxation time-constant) [1]: 36.7 ± 3.6 ms
- Vmax % vs. PRE [1]: 3 ± 1%
- Vmax (estimated maximal velocity of myocardial contractile-element shortening) [1]: 36.0 ± 1.7 s⁻¹
- dP/dtmax % vs. PRE [1]: −6%
- dP/dtmax (peak rate of LV pressure change during systole) [1]: 2,243 mmHg/s
- dP/dtmin % vs. PRE [1]: −12%
- dP/dtmin (peak rate of LV pressure change during diastole) [1]: −1,910 mmHg/s
- CT % vs. PRE [2]: −2%
- CT (contraction time) [2]: 66.7 ms
- EDP % vs. PRE [2]: −33%
- EDP (left-ventricular end-diastolic pressure) [2]: 8.5 mmHg
- FT % vs. PRE [2]: 2%
- FT (filling time) [2]: 321 ms
- HR % vs. PRE [2]: 0%
- HR (heart rate) [2]: 99 bpm
- MSP % vs. PRE [2]: 0%
- MSP (left-ventricular mean systolic pressure) [2]: 130 mmHg
- RT % vs. PRE [2]: 20%
- RT (relaxation time) [2]: 110 ms
- S/D (systolic to diastolic ratio, SET/RT + FT) [2]: 0.5
- SET (systolic ejection time) [2]: 214 ms
- Tau % vs. PRE [2]: 33 ± 5%
- Tau (left-ventricular relaxation time-constant) [2]: 41.1 ± 4.7 ms
- Vmax % vs. PRE [2]: 7 ± 2%
- Vmax (estimated maximal velocity of myocardial contractile-element shortening) [2]: 37.2 ± 1.6 s⁻¹
- dP/dtmax % vs. PRE [2]: −1±4% and −1%
- dP/dtmax (peak rate of LV pressure change during systole) [2]: 2,356 mmHg/s
- dP/dtmin % vs. PRE [2]: −19%
- dP/dtmin (peak rate of LV pressure change during diastole) [2]: −1,759 mmHg/s
- CT % vs. PRE [3]: −1%
- CT (contraction time) [3]: 67.0 ms
- EDP % vs. PRE [3]: −13%
- EDP (left-ventricular end-diastolic pressure) [3]: 10.8 mmHg
- FT % vs. PRE [3]: −27%
- FT (filling time) [3]: 251 ms
- HR % vs. PRE [3]: 11%
- HR (heart rate) [3]: 112 bpm
- MSP % vs. PRE [3]: 0%
- MSP (left-ventricular mean systolic pressure) [3]: 130 mmHg
- RT % vs. PRE [3]: 24%
- RT (relaxation time) [3]: 114 ms
- S/D % vs. PRE [3]: 73%
- S/D (systolic to diastolic ratio, SET/RT + FT) [3]: 0.60
- SET % vs. PRE [3]: 34%
- SET (systolic ejection time) [3]: 208 ms
- Tau % vs. PRE [3]: 53 ± 7%
- Tau (left-ventricular relaxation time-constant) [3]: 47.6 ± 6.5 ms
- Vmax % vs. PRE [3]: 2 ± 2%
- Vmax (estimated maximal velocity of myocardial contractile-element shortening) [3]: 35.6 ± 2.0 s⁻¹
- dP/dtmax % vs. PRE [3]: −3%
- dP/dtmax (peak rate of LV pressure change during systole) [3]: 2,319 mmHg/s
- dP/dtmin % vs. PRE [3]: −26%
- dP/dtmin (peak rate of LV pressure change during diastole) [3]: −1,608 mmHg/s
- CT % vs. PRE [4]: 5%
- CT (contraction time) [4]: 71.0 ms
- EDP % vs. PRE [4]: 46%
- EDP (left-ventricular end-diastolic pressure) [4]: 17.8 mmHg
- FT % vs. PRE [4]: −71%
- FT (filling time) [4]: 85 ms
- HR (heart rate) [4]: 162 bpm
- MSP % vs. PRE [4]: −15%
- MSP (left-ventricular mean systolic pressure) [4]: 111 mmHg
- RT % vs. PRE [4]: 1%
- RT (relaxation time) [4]: 93 ms
- S/D (systolic to diastolic ratio, SET/RT + FT) [4]: 1.06
- SET % vs. PRE [4]: 5%
- SET (systolic ejection time) [4]: 162 ms
- Tau (left-ventricular relaxation time-constant) [4]: 54.7 ± 9.7 ms
- Vmax % vs. PRE [4]: −19±8%
- Vmax (estimated maximal velocity of myocardial contractile-element shortening) [4]: 28.4 ± 3.4 s⁻¹
- dP/dtmax % vs. PRE [4]: −23%
- dP/dtmax (peak rate of LV pressure change during systole) [4]: 1,844 mmHg/s
- dP/dtmin % vs. PRE [4]: −41%
- dP/dtmin (peak rate of LV pressure change during diastole) [4]: −1,288 mmHg/s
- CT (contraction time) [5]: 67.9 ± 0.7 ms
- EDP (left-ventricular end-diastolic pressure) [5]: 12.3 mmHg
- FT (filling time) [5]: 370 ± 50 ms
- HR (heart rate) [5]: 102 bpm
- MSP (left-ventricular mean systolic pressure) [5]: 131 mmHg
- RT (relaxation time) [5]: 92 ± 3 ms
- S/D (systolic to diastolic ratio, SET/RT + FT) [5]: 0.36
- SET (systolic ejection time) [5]: 156 ± 7 ms
- Tau (left-ventricular relaxation time-constant) [5]: 30.8 ± 2.8 ms
- Vmax (estimated maximal velocity of myocardial contractile-element shortening) [5]: 34.9 ± 1.6 s⁻¹
- dP/dtmax (peak rate of LV pressure change during systole) [5]: 2,401 mmHg/s
- dP/dtmin (peak rate of LV pressure change during diastole) [5]: −2,167 mmHg/s
